94 compounds from ChEMBL document CHEMBL2448809, “UCSF DeRisi Lab MMV Box Apicoplast Screening” can be followed below.

This assay deals with Plasmodium falciparum. The assay can be described thus: MMV: Compounds (1uM) were screened in a 72hr growth assay monitored by flow cytometry both in the presence and absence of supplemental isopentenyl pyrophosphate (IPP) 200uM. Compounds which fail to show anti-malarial activity when chemically rescued by IPP are therefore specific to the apicoplast. The values are expressed as the ratio of the corresponding activity with and without IPP, respectively. It counts as functional, W2.
For `CCOc1cc(CNC(C)C(O)c2ccccc2)cc(Cl)c1OCC` (centres undefined), the Ratio worked out at 0.8833.

Turning to `Cc1cc(NC(=O)c2cccc(C(F)(F)F)c2)n(-c2nc(-c3ccc4c(c3)OCO4)cs2)n1`, the Ratio amounted to 0.8908.

`COc1cccc(C2(C)Nc3ccccc3-c3nc4ccccc4n32)c1` (centres undefined): the Ratio is reported as 1.163.

For `CC(C)CNC(=O)c1c(N)n(CCc2ccccc2F)c2nc3ccccc3nc12`, the Ratio came out at 0.63.

Consider `Cc1cccc(-n2ncc3c(O)nc(-n4nc(C)cc4NC(=O)c4cc5ccccc5o4)nc32)c1`, for which the Ratio amounted to 0.6055.

Take `O=C(Nc1ccccc1O)c1ccc(Oc2cccc(C(=O)Nc3ccccc3O)c2)cc1`: the Ratio turned out to be 0.75.

Take `Oc1ccccc1CN1CCC2(CCCN(Cc3ccccc3F)C2)C1` (centres undefined): the Ratio stood at 0.9661.

`Cl.N=c1n(CCN2CCCCC2)c2ccccc2n1CC(O)c1cccc(Br)c1` (centres undefined): the Ratio came to 0.8955.

For `COc1cccc(O)c1CN1CCC2(CCCN(Cc3ccc(F)cc3)C2)C1` (centres undefined), the Ratio was found to be 0.8333.

With `COc1cccc(Nc2nc(NCCO)c3ccccc3n2)c1.Cl`, the Ratio turned out to be 0.7297.

Take `Cc1ccc(-c2cc(C(=O)Nc3ccc(S(=O)(=O)N4CCCCC4)cc3)[nH]n2)c(O)c1`: the Ratio is given as 0.875.

As for `O=C(NCc1ccco1)C1CCN(S(=O)(=O)c2ccc(Cl)cc2)CC1`, the Ratio is reported as 0.8889.

In the case of `COc1ccc(C(=O)Nc2ccc3nc(N4CCCCC4)cc(C)c3c2)cc1OC`, the Ratio is recorded as 0.7897.

Consider `COCCNCC(O)Cn1c2ccc(Cl)cc2c2cc(Cl)ccc21` (centres undefined), for which the Ratio worked out at 0.88.

For `COc1ccc(N2CCN(C(CNC(=O)C3CCCCC3)c3ccc4c(c3)OCO4)CC2)cc1` (centres undefined), the Ratio is given as 0.9206.

`FC(F)(F)c1ccc(Nc2nnnc3ccccc23)cc1`: the Ratio is reported as 1.052.

In the case of `O=C(NC1CCN(Cc2ccccc2)CC1)c1cc(-c2ccncc2)nc2ccc(Cl)cc12`, the Ratio worked out at 0.7749.

For `c1ccc(-c2ccc(-c3nc4ccccc4[nH]3)cc2)cc1`, the Ratio is given as 1.5.

On to `COc1cc2cc(C(=O)Nc3ccccc3)c(N)nc2cc1OC`, for which the Ratio is on record as 1.031.

Consider `COc1cccc(NC(=O)Cn2c(C)c(C#N)c3ccccc32)c1`, for which the Ratio is reported as 1.098.

As for `Cn1c(=O)c2cc(C(=O)NCCCN3CCCCCC3)sc2c2ccccc21`, the Ratio is listed as 1.205.

Take `Cc1[nH]c(-c2ccc(F)cc2)cc1C(=O)NC1CCN(Cc2ccccc2)CC1`: the Ratio was determined as 0.8906.

Regarding `COc1ccc(CCN2CCC(CN(C)Cc3cnn(-c4ccccc4)c3)CC2)cc1`, the Ratio is 0.8571.

With `O=C(NC(c1ccccc1)c1ccc2cccnc2c1O)c1ccccc1` (centres undefined), the Ratio came out at 1.018.

As to `O=C(O)C(=O)O.Oc1ccccc1CN1CCN(C(c2ccccc2)c2ccccc2)CC1`, the Ratio amounted to 1.068.

On to `O=C(NC1CCCC1)c1ccc(N2CCC(NCc3cccc(C(F)(F)F)c3)CC2)cc1`, for which the Ratio was determined as 0.8.

Regarding `CCOc1cc(Br)c(C(C)NC(=O)c2cccc(OC)c2)cc1OCC` (centres undefined), the Ratio amounted to 0.791.

On to `CC(C)=CCN1CCC(C(=O)Nc2ccc(-c3nc4ccccc4[nH]3)cc2)CC1`, for which the Ratio worked out at 0.8533.

For `CCN(CC)CCn1c(=N)n(CC(O)c2ccc(Cl)c(Cl)c2)c2ccccc21.Cl` (centres undefined), the Ratio is given as 0.9508.

`CCOc1cc(Cl)c(C(C)NC(=O)c2cccc(OC)c2)cc1OCC` (centres undefined): the Ratio is listed as 0.9259.

In the case of `O=C(CCc1ccco1)NC1CCN(CC2(c3ccc(Cl)cc3)CCC2)CC1`, the Ratio was determined as 0.875.

With `FC(F)(F)c1cccc(Nc2nc(-c3ccccc3)nc3ncccc23)c1`, the Ratio came out at 0.7857.

Regarding `CCN1CCN(c2cc(C)c3cc(NC(=O)c4ccc(OC)c(OC)c4)ccc3n2)CC1`, the Ratio is 0.8308.

On to `CC(=O)Nc1nnc(SCc2c(C)cc(C(C)(C)C)cc2C)s1`, for which the Ratio is reported as 0.8169.

For the compound `Cc1ccc(Cl)cc1N1CCN(CCCNC(=O)C2CCN(c3nc4ccccc4[nH]3)CC2)CC1`, the Ratio is reported as 0.814.

Take `COc1ccc(CNC2CCN(c3ccc(NC(=O)c4cccc(Cl)c4)cc3)CC2)cc1OC`: the Ratio was determined as 1.145.

As to `Cc1ccc(CSCc2ccc(C(=O)NC3CC3)o2)cc1`, the Ratio is recorded as 0.8621.

Take `CC(NCc1ccccc1)c1cc(Cl)ccc1O` (centres undefined): the Ratio was determined as 0.6957.

Regarding `CN1CCN(c2c3c(c(C#N)c4nc5ccccc5n24)CCC3)CC1`, the Ratio amounted to 1.032.

As for `CCOc1ccc(C2N(C)c3ccccc3N2C)cc1`, the Ratio was determined as 0.8372.

In the case of `O=C(c1ccccc1F)N(Cc1ccc(Cl)cc1)c1ccccn1`, the Ratio stood at 0.7857.

In the case of `COc1ccc(C(=O)Nc2ccc(Cl)cc2C(=O)Nc2ccncc2)cc1`, the Ratio turned out to be 0.8104.

Consider `O=C(Nc1ccc(CN2CCOCC2)cc1)c1ccc(-c2ccc(Br)cc2)o1`, for which the Ratio stood at 0.6519.

`CCN(Cc1ccccc1)C1CCN(Cc2cc(Br)ccc2O)CC1.O=C(O)C(=O)O`: the Ratio stood at 0.9701.

`CC(=O)NCCc1nc2ccccc2n1Cc1ccc(C(C)C)cc1`: the Ratio was 1.018.

`COc1nc(Nc2ccc(C(C)C)cc2)nc(OC)n1`: the Ratio is on record as 0.9479.

Turning to `CCN(CC)CCNc1ncnc2c1[nH]c1ccc(Br)cc12`, the Ratio came to 0.9508.

On to `CCOc1cccc(C(=O)Nc2ccc(-c3nc4ccccc4[nH]3)cc2)c1`, for which the Ratio is listed as 1.322.

For the compound `CN(C)c1ccc(-c2nc3cc(N)ccc3[nH]2)cc1`, the Ratio worked out at 1.036.

`Cl.Clc1cc(Br)ccc1-c1ccc(CNCC2CCNCC2)o1`: the Ratio was determined as 1.173.

`O=C(CSc1ccc2nnc(-c3cccc(F)c3)n2n1)Nc1ccc2c(c1)OCO2`: the Ratio was 0.7344.

With `Cc1c(C)n(Cc2ccc(F)cc2)c2ccc(C(=O)NCc3ccco3)cc12`, the Ratio is on record as 1.212.

`CCN(CC)c1ccc(NC(=O)c2cccs2)cc1`: the Ratio came out at 1.

In the case of `CCCCNCC(O)(c1ccc(Cl)cc1)c1ccc(Cl)cc1`, the Ratio was determined as 1.074.

As for `CCCC(c1nnnn1C1CCCCC1)N1CCN(C(=O)c2ccco2)CC1.Cl` (centres undefined), the Ratio is 1.023.

For the compound `CC(C)(C)C(=O)Nc1ccc(C(=O)Nc2cccc(-c3nc4ccccc4[nH]3)c2)cc1`, the Ratio was found to be 0.7684.

`COc1ccc(-c2nonc2NC(=O)c2cccc(C)c2)cc1OC`: the Ratio is listed as 1.066.

As for `COc1cccc(-c2nn(C)c3sc(C(=O)NCCN4CCN(c5ccccc5F)CC4)cc23)c1`, the Ratio is 0.7703.

For the compound `O=C(Nc1ccc(N2CCN(Cc3ccccc3)CC2)cc1)c1cccs1.O=C(O)C(F)(F)F`, the Ratio worked out at 0.8148.

For the compound `Cc1ccc(CN2CCC(C(=O)Nc3ccc(-c4cc5ccccc5[nH]4)cc3)CC2)o1`, the Ratio stood at 0.8636.

Consider `O=C(Nc1ccc(N2CCCCC2)c(Cl)c1)c1ccc(Br)o1`, for which the Ratio came to 0.8784.

For the compound `Cc1cc(C)c2nc(N3CCC(C(=O)NCCCN4CCC(N5CCCCC5)CC4)CC3)sc2c1`, the Ratio was 0.8033.

Take `O=C(Nc1ccsc1C(=O)NC1CCCCC1)c1ccc(F)cc1`: the Ratio came out at 0.9369.

On to `O=C(Nc1cccc(C(F)(F)F)c1)c1cc(Cl)ccc1O`, for which the Ratio is listed as 0.9697.

Take `CC(C)(C)c1ccc(C(=O)Nc2nc3ccccc3s2)cc1`: the Ratio stood at 0.8302.

Regarding `CCOc1cccc2sc(N(Cc3cccnc3)C(=O)C3CCCCC3)nc12`, the Ratio was determined as 0.8788.

As for `CC1CC(C)CN(C(=O)c2ccc(Cl)cc2Cl)C1` (centres undefined), the Ratio is 0.6364.

Regarding `COc1ccccc1CNC(=O)C1c2ccccc2C(=O)N(CC(C)C)C1c1cccs1` (centres undefined), the Ratio is 1.038.

For `OC(CNC1CCCC1)Cn1c2ccccc2c2ccccc21` (centres undefined), the Ratio was determined as 1.151.

As to `COc1ccc(C2N(C)c3ccccc3N2C)cc1`, the Ratio turned out to be 0.8737.

On to `CCN(CC)c1cc(C)c2cc(NC(=O)c3cccc(OC)c3)ccc2n1`, for which the Ratio worked out at 1.095.

As to `CCOc1ccc(/C=C/c2nc(=O)c3ccccc3o2)cc1`, the Ratio stood at 0.7714.

With `O=C(Nc1ccccc1O)c1ccc(-c2ccc(Cl)cc2Cl)o1`, the Ratio amounted to 0.8413.

Regarding `CC(C)OCc1cc(CN2CCN(c3cccc(Cl)c3)CC2)c(O)c2ncccc12`, the Ratio is on record as 1.015.

For `O=C(Nc1nc(-c2ccccn2)cs1)c1ccccc1Br`, the Ratio is given as 0.987.

For the compound `O=C(Nc1ccc(F)c(Cl)c1)Nc1ccc(Cl)c(Cl)c1`, the Ratio was determined as 1.268.

`CC(O)(c1ccc(Cl)cc1)C(CN1CCCCC1)c1ccccc1.Cl` (centres undefined): the Ratio was 0.9286.

For the compound `CCOc1ccc(-c2nc(NC(=O)c3cccc(S(C)(=O)=O)c3)sc2C)cc1`, the Ratio came out at 0.4367.

As for `CCOc1ccccc1CNC(=O)C1c2ccccc2C(=O)N(CC(C)C)C1c1cccs1` (centres undefined), the Ratio is 1.143.

On to `Clc1ccc2[nH]c3c(NCCCN4CCOCC4)ncnc3c2c1`, for which the Ratio came to 0.9836.

Consider `COc1ccccc1N1CCN(C(CNS(=O)(=O)c2ccc(Cl)cc2)c2cccnc2)CC1` (centres undefined), for which the Ratio is reported as 0.8506.

Consider `Oc1c2c(nc3cc(-c4ccccc4)nn13)CCCC2`, for which the Ratio was determined as 0.8046.

As for `CCCc1c(C)nc2ccccc2c1O`, the Ratio was determined as 0.9683.

On to `CCOc1c(Cl)cc(CNC(C)C(O)c2ccccc2)cc1OC` (centres undefined), for which the Ratio is 1.031.

For the compound `CCCN(CCC)CCCNC(=O)c1cc2c(-c3ccc(OC)c(OC)c3)nn(C)c2s1`, the Ratio is reported as 1.186.

Take `Cc1cc(N2CCN(C3CCCC3)CC2)n2c(nc3ccccc32)c1C#N`: the Ratio is on record as 0.7364.

With `CCN(CC)CCCNc1nc(-c2ccc(Cl)cc2)nc2ccccc12`, the Ratio was 1.055.

For `CN1c2ccccc2N(C)C1c1ccc2c(c1)OCO2`, the Ratio was 0.7561.

Consider `CCCCOc1ccc(C(=O)Nc2cc(C)on2)cc1`, for which the Ratio is listed as 0.9875.

Consider `O=C(NCC1Cc2cccc(-c3ccncc3)c2O1)c1csc2c1CCCC2` (centres undefined), for which the Ratio amounted to 0.6487.

Consider `CCc1ccc(Nc2cc(C)nc3nc(C)nn23)cc1`, for which the Ratio is on record as 0.9802.

`Br.CCN(CC)S(=O)(=O)c1ccc(-c2csc(Nc3ccc(C)c(C)c3)n2)cc1`: the Ratio came out at 0.8.

As to `C=C(C)CCC(C)N1CCC(N2CCC(C(=O)NCCc3ccccc3)CC2)CC1` (centres undefined), the Ratio was 0.756.

With `C=CCc1c(C)nc2ccccc2c1O`, the Ratio is listed as 0.9595.
